The target in experiment [1] is T1, Hexokinase-4 (Homo sapiens, UniProt P35557).
T1 sequence (P35557 whole entry): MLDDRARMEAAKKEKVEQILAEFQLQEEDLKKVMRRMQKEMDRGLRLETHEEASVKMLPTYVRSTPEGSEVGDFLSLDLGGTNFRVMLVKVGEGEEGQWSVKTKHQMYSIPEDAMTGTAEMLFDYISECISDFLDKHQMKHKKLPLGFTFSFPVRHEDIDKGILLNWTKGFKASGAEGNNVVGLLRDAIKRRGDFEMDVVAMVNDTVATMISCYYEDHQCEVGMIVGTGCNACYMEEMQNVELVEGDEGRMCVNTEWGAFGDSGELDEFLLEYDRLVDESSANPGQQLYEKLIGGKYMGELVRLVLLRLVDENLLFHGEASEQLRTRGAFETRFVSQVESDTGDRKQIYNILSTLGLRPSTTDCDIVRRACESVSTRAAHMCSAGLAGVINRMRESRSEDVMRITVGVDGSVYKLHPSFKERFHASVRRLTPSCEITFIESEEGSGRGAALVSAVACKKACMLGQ
In words: Activation of human recombinant glucokinase using 5 mM glucose as substrate in presence of NAD+ by glucose 6-phosphate dehydrogenase coupled assay.

The target of experiment [2] is T1, Hexokinase-4. In words: Activation of human recombinant glucokinase using 5 mM glucose as substrate in presence of NAD+ and 4% HSA by glucose 6-phosphate dehydrogenase coupled assay.

As usually defined, the EC50 is the concentration that produces a half-maximal response. Take `CNC(=O)Nc1cc(Oc2cncc(C)c2)c([C@@H]2CC[C@@H](O)C2)cn1`: the 50% effective concentration (EC50) was found to be 0.097 µM on Hexokinase-4 [1] and 0.19 µM at Hexokinase-4 [2].
For `CNC(=O)Nc1cc(Oc2cncc(C)c2)c([C@H]2C[C@@H]2CO)cn1`, in that order: 0.13 µM and 0.17 µM.
On to `CNC(=O)Nc1cc(Oc2cncc(OC)c2)c([C@@H]2COCC[C@@H]2O)cn1`, for which the half-maximal effective concentration (EC50) at Hexokinase-4 [1] was 0.94 µM; at Hexokinase-4 [2] it was 0.92 µM.
`CNC(=O)Nc1cc(Oc2cncc(C)c2)c([C@H]2C[C@@H]2C(C)(C)O)cn1`: the EC50 came to 0.083 µM at Hexokinase-4 [1] and 0.13 µM at Hexokinase-4 [2].

Source of the values: BindingDB's records for doi:10.1021/acsmedchemlett.6b00145 (Amgen, 2016).
